Results on one compound are retold here after patent US6288110A, “Pharmaceutical compositions comprising disulfiram” (Yeda Research and Development Co Ltd., priority 1998, dated 2001).

The test system of data set [1] is BCE cells. Kind of data set: Apoptosis by FACS (DNA content) in BCE cells. The data set is classed as cell-based, bovine. To be noted: 0.5-5 μM, 20 hours. As to the method: Cells were cultured in plastic tissue culture dishes for 48 hours in presence of growth media as described above, until reaching 40-50% confluency. Disulfiram was then added to the cells for 20 hours. The cells were removed from the plates by EDTA-trypsin and fixed in ice-cold 70% ethanol (BioLab, Israel) in -20° C. for 2 hr to overnight. The fixed cells (2-5×10^6) were washed once with HEPES-buffered saline (HBSS) and incubated with 0.5 mg/ml RNAseH (Boehringer Mannheim). Afterwards the cells were resuspended in HBSS containing 50 μg/ml propidium iodide (Sigma) and subsequently analyzed on a FACSort flow cytometer (Beckton Dickinson Inc.) using Lysis II software. For the analysis, 10,000 cells were examined from each sample. The percentage of the hypodiploid cells was measured (Darzynkiewicz, 1992; Afanasyev, 1993). The cell cycle histogram was divided into four regions according to the cell cycle phases: Ap, apoptotic cells; G1, diploid cells; S, intermediate cells; and G2 /M, tetraploid cells.
Capillary endothelial cells were grown during 48 hours to 40-50% confluency and disulfiram was then added to the cells for 20 hours as described in section (g) of "Materials and Methods" above. […] The abundance of apoptotic cells was dose-dependent.
(In general: A flow cytometer gives signals particle by particle.)

The subject of data set [2] is capillary endothelial (BCE) cells. The data set can be described thus: TUNEL assay for apoptosis, BCE cells. It is filed as cell-based, bovine. Conditions: 1 μM, 6 hours. The protocol:
(§1) Cells were cultured on microscope slides for 48 hours in presence of growth media as described above, until reaching 40-50% confluency. Disulfiram was then added to the cells for 6 hours or for 20 hours in the case of BALB/MK keratinocytes, fixed with 4% paraformaldehyde and washed three times with PBS. Apoptosis was analyzed by the in situ TUNEL staining carried out as described (Wride, 1994). Briefly, microscope slides were incubated for 15 min in 2×SSC buffer at 60° C., washed in DDW and incubated with 20 μg/ml proteinase K (Boehringer Mannheim) for 15 min at room temperature. After a wash with DDW, endogenous peroxidases were inactivated by incubating the slides with 2% H2 O2 in PBST (PBS with 0.05% Tween 20) for 10 min at room temperature. Slides were then incubated in TdT buffer (Boehringer Mannheim) for 5 min at room temperature, and a reaction mixture containing 5×TdT buffer and 1 μl biotin-21-dUTP (Clontech, 1 mM stock) and 8 units of the TdT enzyme (Boehringer Mannheim) in total volume of 50 μl was subsequently added. The reactions were carried out at 37° C. for 1.5 hr in a humid chamber. The slides were washed in 2×SSC, DDW and finally with PBS and covered with 10% skim milk in PBST for 15 min. […]

Data set [3] relates to BALB/MK keratinocytes. Kind of data set: TUNEL assay for apoptosis, BALB/MK keratinocytes. The data set is classed as cell-based, murine. To be noted: 5 μM. The protocol: as §1, with “Disulfiram was then added to the cells for 6 hours or for 20 hours in the case of BALB/MK keratinocytes, fixed with 4% paraformaldehyde and washed three times with PBS.” left out, “min. After removal of the skim milk, the sections were incubated with ABC solution from ABC kit (Vector Laboratories, Inc.) for 30 min at room temperature, washed with PBS and stained using AEC procedure (Sigma) The slides were then washed ×3 in DDW and stained with haematoxylin for 30 sec and mounted by Kaiser's glycerol gelatin (Merck).” for “min.”

The test system of data set [4] is fibroblasts. The data set can be described thus: Induction of apoptosis, fibroblasts. It is filed as cell-based.
For data set [5], the system named is Lewis lung carcinoma (D122) metastasis in the lungs. The data set can be described thus: Lewis lung carcinoma metastasis, footpad model. It is filed as in vivo, C57/BL mice. From the text: The Lewis lung carcinoma (3LL), which originated spontaneously in a C57/BL/6J (H-2^b) mouse, is a malignant tumor that produces spontaneous lung metastases. The metastatic clone D122, kindly provided by Prof. Lea Eisenbach (Weizmann Institute of Science, Rehovot, Israel), was used herein for tissue culture and for in vivo experiments. The cell cultures were maintained in DMEM supplemented with 10% heat-inactivated FCS, glutamine, antibiotics, sodium pyruvate and nonessential amino acids.
Two metastasis models were used: 1. The footpad model. 2. The i.v. model. The assay of tumor development in the footpad model and evaluation of lung metastases was done as previously described (Eisenbach, 1983). Briefly, eight mice in each experimental group were inoculated with 2×10^5 D122 cells in 0.05 ml PBS in the right hind footpad. Three days following tumor cells injection, mice were treated per os by disulfiram or saline 3 times per week. The tumors became palpable within 11-19 days. Local tumor growth was determined by measuring the footpad diameter with a calipers. At 26-40 days following inoculation, when local tumor reached a diameter of 6-7 mm, mice were anesthetized with a single dose of 75 mg/kg ketamine+3 mg/kg xylazine (i.p.) and the tumor-bearing leg was removed by amputation above the knee joint. To measure progress of metatases the mice were killed 24 days following amputation by injecting 20 mg/mouse xylazine i.p. and lungs were weighed.
Twenty-four days following the removal of the tumor-bearing leg, lungs were weighed.

In data set [6] the test system is dopamine-β-hydroxylases. Conditions: cited from earlier work.
Data set [7] relates to toxic side effects of HECNU. To be noted: rats; cited from earlier work.
Data set [8] has as its system murine leukemia. To be noted: 3 mg/mouse; cited from earlier work.
The conditions of data set [9]: ingested or injected intraperitoneally; cited from earlier work.

Entries after “also recorded” stand apart in the source; their conditions may differ.

As to `CCN(CC)C(=S)SSC(=S)N(CC)CC` [disulfiram, Bis(diethylthiocarbamoyl) disulfide], in data set [1], the “apoptosis by FACS analysis of DNA content” value is on record as “induced in a dose-dependent manner a sub-diploid apoptotic population; also recorded: appearance of a sub-diploid apoptotic population of cells” and the “dose dependence of abundance of apoptotic cells (FACS)” value is reported as “dose-dependent”. For the same compound, the “apoptosis by TUNEL method” value in data set [2] is “labeled; also recorded: induced into apoptosis”. For the same compound, the “apoptosis by TUNEL method” value in [3] is “did not induce”. For the same compound, the induction of apoptosis entry in data set [4] is given as “fails to induce apoptosis”. Also, the “metastasis on the lungs compared with water-fed control (in words)” value in data set [5] (30 μg, 3 times a week, 24 days, n=6, p=0.005) is listed as “significantly smaller”. In addition, the “lowering of the metastatic load in the lungs” value in [5] (30 μg/mouse, 24 days following removal of tumor-bearing leg) is listed as approximately 10 fold. In addition, the “decrease in the metastatic load in the lungs (in words)” value in data set [5] (120 μg/mouse (not shown)) is “only slight decrease”. Moreover, in [5] (by 24th day following leg removal, control 50% died), the “deaths of disulfiram-treated mice” value is listed as “no disulfiram-treated mice died”. In addition, the “mice with no metastases at all” value in data set [5] (disulfiram-treated group) was “two out of six”. The “inhibition of dopamine-β-hydroxylases” value in data set [6] is “inhibit”. In data set [7], the “effect on anti-tumor potency of HECNU” value was “without inhibiting its anti-tumor potency” and the “protection against toxic side effects of HECNU” value is on record as “protected rats”. Moreover, the “potentiation of nitrogen mustard (HN2) cytotoxicity” value in data set [8] is listed as “potentiate”. In addition, the “distribution throughout the body” value in [9] is “extensively distributed throughout the body including the brain”.
